# Measurements as given in patent US7449495B2, “Retinoid derivatives with antiangiogenic, antitumoral and proapoptotic activities” (Sigma-Tau Industrie Farmaceutiche Riunite S.p.A., priority 2001, dated 2008).
# Key:
# [1] = tested on: human ovarian carcinoma A2780; experiment: Antitumoral activity in human ovarian carcinoma model A2780; type: in vivo, CD1 nu/nu mice; conditions: qdx5x3w
# Protocol: The human ovarian carcinoma cells A2780, A2780/Dx and NCIH460 were maintained in RPMI-1640 containing 10% FCS, 2 mM glutamine, 50 μg/ml gentamicin, at 37° C. in a humidified atmosphere containing 5% CO2. The cells were trypsinised, collected in complete medium, centrifuged at approx. 1100 rpm for 10 minutes and the precipitate resuspended in Hank's 199 Medium; this operation was carried out twice. The cells were resuspended in Hank's 199 Medium at a density of 20×10^6/ml and 0.1 ml (equal to 2×10^6 cells/mouse) were injected s.c. into the right flank of CD1 nu/nu 6 week-old, female mice.
# The ST1926 solution was prepared immediately before use and solubilised in cremophor:ethanol 1:1 and subsequently diluted 1:4 in buffered saline solution. The animal treatments were administered in a volume of 10 ml/kg. The treatment protocol for ST1926 at different doses was for 5 consecutive days (qd×5), beginning one day following tumor cell inoculation and repeated for 3 cycles. Measurements of tumor dimensions were performed using a digital calliper (Vernier Caliper) twice weekly, from the time in which the mass was measurable. The tumor mass was evaluated from the size of the two principal dimensions (length and breadth), expressed in mm, applying the formula (length×breadth^2)/2, that is, the tumor volume in mm3. For each experimental group, the percentage of tumor volume inhibition was calculated (TVI %), with respect to the control, namely (100−(T/C %). TVI was evaluated 2 days after the final administration of ST1926.
# The mice were measured until the control group tumors had reached a weight of 2 g, then the mice were sacrificed by cervical dislocation.
# A comparison between the TVI values obtained for each group was performed using the non parametric Mann Whitney test for non-paired data, using the Instat software from GraphPad inc.
# The mice were weighed prior to each treatment, firstly, so as to be able to administer the correct quantity of substance based on the possible changes in weight observed throughout the course of administration of the drug, and also to record the maximum weight loss throughout the treatment (BWL % max).
# [2] = tested on: Human prostate carcinoma PC3; experiment: Cytotoxicity test (sulphorodamine B), PC3; type: cell-based; conditions: 24 h incubation, survival 48 h after removal, read-out: IC50
# Excerpt: (§1) Different cell lines deriving from solid tumors were also used. • 1. Human prostate carcinoma PC3 and DU145. These cell lines were maintained in RPMI 1640 medium containing 10% FCS, 1% sodium pyruvate and 1% glutamine; • 2. Human colon adenocarcinoma LoVo. This cell line was maintained in HAM's F-12 medium, containing 10% FCS and 1% glutamine. • 3. Human ovarian carcinoma such as A2780 and A2780/Dx, sensitive and resistant to drugs, respectively (doxorubicin, taxol, etoposide, vincristine); IGROV-1 and IGROV-1/Pt, sensitive and resistant to platinum-based chemotherapy, respectively, were maintained in RPMI 1640 medium containing 10% FCS, 1% sodium pyruvate and 1% glutamine; • 4. Human melanoma MeWo and MeS 2.21, glioblastoma GBM, no small cell lung carcinomas A431, NCI—H460, osteosarcomas SAOS and U2OS were maintained in RPMI 1640 medium containing 10% FCS, 1% sodium pyruvate and 1% glutamine.
# (§2) The cytotoxicity tests were carried out using NB4 or HL-60 cells in suspension (10000/well). The cells were seeded in a volume of 250 μl in 96 well plates and incubated for 24 hours at 37° C. […] The optical density was measured using a Multiskan spectrophotometer at 540 nm. […]
# (§3) Cell survival was determined by incubation with ST1926 for 24 hours, 48 hours after the removal of the compound. […]
# glioblastoma GBM = experiment: Cytotoxicity test (sulphorodamine B), GBM; type: cell-based; conditions: Homo sapiens, 24 h incubation, survival 48 h after removal
# Excerpt: as §1, §2, §3
smiles,measurement,setting,value
"O=C(O)/C=C/c1ccc(-c2ccc(O)c(C34CC5CC(CC(C5)C3)C4)c2)cc1 [ST1926, E-4-(3-(1-adamantyl)-4-hydroxyphenyl)cinnamic acid]",BWL % Max,"[1]; A2780, 5 mg/kg p.o.",3%
same,Lethality,"[1]; A2780, 5 mg/kg p.o.",0/8
same,TVI % ± SE,"[1]; A2780, 5 mg/kg p.o.",*34 ± 8%
same,BWL % Max,"[1]; A2780, 10 mg/kg p.o.",5%
same,Lethality,"[1]; A2780, 10 mg/kg p.o.",0/8
same,TVI % ± SE,"[1]; A2780, 10 mg/kg p.o.",*39 ± 5%
same,IC50,[2],210 nM
same,IC50,glioblastoma GBM,180 nM
